Square brackets hold non-standard residues; d marks the D form. Peptide text beside a SMILES is read from it.
Tested on: pituitaries
Test: In vitro growth hormone release study (incubated rat pituitaries, GH by RIA)
Format: cell-based
Settings: mean of 9 assays ± SEM
Experimental: Female rats of the CD-1 strain were housed in a constant temperature room at 24° C. with 14 hours light and 10 hours darkness. The rats were fed Purina brand rat chow ab libitum. All studies were started between 0800 and 1000 hours.
Pituitaries were removed from 20 day old female rats. In each polytetrafluoroethylene beaker (10 ml) was incubated two pituitaries at 36° C. in 1 ml of lactated Ringer's solution in a Dubnoff Shaker (90 cycles/min.). All medium in each beaker was removed each hour (e.g., P1, P2, I3, I4, I5) and then fresh medium was added back to each beaker. Each medium removed was assayed for GH, in duplicate, by a standard radioimmunoassay (RIA).
The growth hormone agonist of Example 1 was not added to the incubation mediums employed during the first hour of the incubation period (P1) or to the incubation mediums employed during the second hour of the incubation period (P2). The growth hormone agonist of Example 1 was dissolved in dimethylsulfoxide (DMSO; 10:1, agonist:DMSO), added to each incubation medium employed during the third hour of the incubation period (I3), to each medium employed during the fourth hour of the incubation period (I4), and to each medium employed during the fifth hour of the incubation period (I5). The release of growth hormone was recorded as ΔGH and calculated by subtracting the amount of GH released at P2 from that released at I3, I4, and I5. The agonist activity was determined from the release at I3, I4, and I5.

SMILES | ΔGH (peptide dosage 1 ng/ml incubation medium) [ng/ml incubation medium] | ΔGH (peptide dosage 3 ng/ml incubation medium) [ng/ml incubation medium] | ΔGH (peptide dosage 10 ng/ml incubation medium) | ΔGH (zeranol dosage 300 ng/ml incubation medium, pituitaries of 20 day old female rats, I3-I5 minus P2) [ng/ml incubation medium] | ΔGH (zeranol dosage 3,000 ng/ml incubation medium) [ng/ml incubation medium] | ΔGH (zeranol dosage 30,000 ng/ml incubation medium) [ng/ml incubation medium] | ΔGH (zeranol dosage 100,000 ng/ml incubation medium) [ng/ml incubation medium]
C[C@H](NC(=O)[C@@H](Cc1c[nH]c2ccccc12)NC(=O)[C@@H](N)Cc1c[nH]cn1)C(=O)N[C@@H](Cc1c[nH]c2ccccc12)C(=O)N[C@H](Cc1ccccc1)C(=O)N[C@@H](CCCCN)C(N)=O [H2 -His-D-Trp-Ala-Trp-D-Phe-Lys-NH2] (H-H[dW]AW[dF]K-NH2) | 887 ± 98 | 821 ± 138 | 2,759 ± 315 ng/ml incubation medium | – | – | – | –
C[C@H]1CCC[C@H](O)CCCCCc2cc(O)cc(O)c2C(=O)O1 [Zeranol, zeranol] | – | – | – | 83 ± 63 | 87 ± 59 | 683 ± 187 | -133 ± 98
